According to patent US20080119456A1, “Substituted Thiazoleacetic Acid as Crth2 Ligands” (priority 2004, published 2008):

Experiments:
human CRTH2-Rluc = biological target: T1, human CRTH2-Rluc (Homo sapiens, UniProt Q9Y5Y4, V204A); experiment: Functional antagonist BRET assay on HEK293 cells stably expressing CRTH2-Rluc and GFP2-β-arr2; type: cell-based; conditions: antagonist incubated 15 minutes before agonist, read-out: Antag. IC50
T1 construct: expressed in transfected cells
T1 sequence (Q9Y5Y4 1-395 V204A): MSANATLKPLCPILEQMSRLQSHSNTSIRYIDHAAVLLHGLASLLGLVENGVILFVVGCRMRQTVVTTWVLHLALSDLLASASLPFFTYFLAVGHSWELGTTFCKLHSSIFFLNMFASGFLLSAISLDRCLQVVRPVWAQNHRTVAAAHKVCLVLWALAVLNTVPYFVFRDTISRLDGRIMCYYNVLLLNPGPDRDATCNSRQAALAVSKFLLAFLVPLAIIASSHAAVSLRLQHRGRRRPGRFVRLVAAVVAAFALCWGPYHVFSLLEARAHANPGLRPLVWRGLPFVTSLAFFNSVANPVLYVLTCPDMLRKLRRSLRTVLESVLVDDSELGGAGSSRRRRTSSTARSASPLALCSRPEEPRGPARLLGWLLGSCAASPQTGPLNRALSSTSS
Description: (§1) Generation/origin of the cDNA Constructs. The coding sequence of the human CRTH2 receptor (genbank accession no NM_004778) was amplified by PCR from a human hippocampus cDNA library and inserted into the pcDNA3.1(+) expression vector (invitrogen) via 5′ HindIII and 3′ EcoRI. To generate a CRTH2-Renilla luciferase (CRTH2-Rluc) fusion protein, the CRTH2 coding sequence without a STOP codon and Rluc were amplified, fused in frame by PCR and subcloned into the pcDNA3.1(+)Zeo expression vector (invitrogen). Human β-arrestin2 (β-arr2) N-terminally tagged with GFP^2 (βarr2-GFP^2) and Renilla luciferase were purchased from BioSignal Packard Inc, (Montreal, Canada). The sequence identity of the construct was verified by restriction endonuclease digests and sequencing in both directions on an ABI Prism (Applied Biosystems, Foster City, Calif.).
(§2) Cell Culture and Transfection. COS-7 cells were grown in Dulbecco's modified Eagle's medium (DMEM) 1885 supplemented with 10% fetal bovine serum, 100 units/ml penicillin, […] streptomycin, and kept at 37° C. in a 10% CO2 atmosphere. HEK293 cells were maintained in Minimum Essential medium (MEM) supplemented with 10% (v/v) heat inactivated fetal calf serum (HIFCS), 2 mM Glutamax™-I, 1% non essential amino acids (NEAA), 1% sodium pyruvate and 10 μg/ml gentamicin. For binding experiments, COS7 cells were transiently transfected with the CRTH2 receptor using a calcium phosphate-DNA coprecipitation method with the addition of chloroquine (as described by Hoist et al., 2001*). To perform the functional Bioluminescence Resonance Energy Transfer (BRET) assays, a HEK293 cell clone stably expressing βarr2-GFP^2 and CRTH2-Rluc was generated (CRTH2-HEK293 cells).
BRET assay. Functional BRET assays were performed on HEK293 cells stably expressing human CRTH2-Rluc and GFP^2-β-arr2. Prior to their use in the BRET assay cells were detached and re-suspended in D-PBS with 1000 mg/L L-Glucose at a density of 2×10^6 cells/mL. DeepBlueC™ was diluted to 50 μM in D-PBS with 1000 mg/L L-Glucose (light sensitive). 100 μL of cell suspension was transferred to wells in a 96-well microplate (white OptiPlate) and placed in the Mithras LB 940 instrument (BERTHOLD TECHNOLOGIES, Bad Wildbad, Germany). 12 μL/well agonist was then injected by injector 1 and 10 μL/well DeepBlueC™ was injected simultaneously by injector 2. Five seconds after the injections the light output from the well was measured sequentially at 400 nm and 515 nm, and the BRET signal (mBRET ratio) was calculated by the ratio of the fluorescence emitted by GFP^2-β-arr2 (515 nm) over the light emitted by the receptor-Rluc (400 nm). Antagonists were added before placing the microplates into the Mithras LB 940 and allowed to incubate for 15 minutes prior to the addition of agonist and DeepBlueC™. Compounds were dissolved in DMSO and the final DMSO concentration was kept constant at 1% in the assay.
(§3) Curve analysis was performed with the GraphPadPrism software 3.0 (Graphpad Prism Inc., San Diego, USA) and IC50 values were calculated as a measure of the antagonistic potencies.

human CRTH2 receptor = biological target: T2, human CRTH2 receptor (Homo sapiens, UniProt Q9Y5Y4, V204A); experiment: Receptor binding assay: [3H]PGD2 competition on whole COS-7 cells transfected with CRTH2; conditions: 0.1 nM [3H]PGD2, whole cells, 3 h at 4° C.
T2 construct: expressed in transfected cells; host or cells: COS-7 cells, transient, pcDNA3.1(+)
T2 sequence (Q9Y5Y4 1-395 V204A): T1 sequence (Q9Y5Y4 1-395 V204A)
Description: as §1, §2
Binding assay. 24 h after transfection COS-7 cells were seeded into 96 well plates at a density of 30.000 cells/well. Competition binding experiments on whole cells were then performed about 18-24 h later using 0.1 nM [^3H]PGD2 (NEN, 172 Ci/mmol) in a binding buffer consisting of HBSS (GIBCO) and 10 mM HEPES. Competing ligands were diluted in DMSO which was kept constant at 1% (v/v) of the final incubation volume. Total and nonspecific binding were determined in the absence and presence of 10 μM PGD2. Binding reactions were routinely conducted for 3 h at 4° C. and terminated by 2 washes (100 μl each) with ice cold binding buffer. Radioactivity was determined by liquid scintillation counting in a TOPCOUNTER (Packard) following over night incubation in Microscint 20. Stable HEK293 cells were seeded at a density of 30.000 cells/well 18-24 h prior to the binding assay which was performed essentially as described for COS7 cells above. Determinations were made in duplicates.
as §3

| SMILES | IC50 (human CRTH2-Rluc) | IC50 (human CRTH2 receptor) |
| --- | --- | --- |
| COc1ccc(C(c2ccc(OC)cc2)c2nc(-c3ccc(F)cc3)c(CC(=O)O)s2)cc1 [Compound A20, [2-[Bis-(4-methoxy-phenyl)-methyl]-4-(4-fluoro-phenyl)-thiazol-5-yl]-acetic acid] | < 500 nM | < 500 nM |
| O=C(O)Cc1sc(C(c2ccccc2)c2ccccc2)nc1-c1ccc(Oc2ccccc2)cc1 [Compound A21, [2-Benzhydryl-4-(4-phenoxy-phenyl)-thiazol-5-yl]-acetic acid] | 500 to 5000 nM | < 500 nM |
| O=C(O)Cc1sc(C(c2ccccc2)c2ccc(O)cc2)nc1-c1ccc(F)cc1 (stereo not drawn) [Compound A22, {4-(4-Fluoro-phenyl)-2-[(4-hydroxy-phenyl)-phenyl-methyl]-thiazol-5-yl}-acetic acid] | < 500 nM | < 500 nM |
| O=C(O)Cc1sc(C(c2ccccc2)c2ccccc2)nc1-c1cccc(F)c1 [Compound A23, [2-Benzhydryl-4-(3-fluoro-phenyl)-thiazol-5-yl]-acetic acid] | < 500 nM | < 500 nM |
| O=C(O)Cc1sc(C(c2ccccc2)c2ccccc2)nc1-c1ccc(C(F)(F)F)cc1 [Compound A24, [2-Benzhydryl-4-(4-trifluoromethyl-phenyl)-thiazol-5-yl]-acetic acid] | > 5000 nM | 500 to 5000 nM |
| O=C(O)Cc1sc(C(c2ccc(F)cc2)c2ccc(F)cc2)nc1-c1ccc(F)c(F)c1 [Compound A25, [2-[Bis-(4-fluoro-phenyl)-methyl]-4-(3,4-difluoro-phenyl)-thiazol-5-yl]-acetic acid] | < 500 nM | < 500 nM |
| O=C(O)Cc1sc(C(c2ccccc2)c2ccccc2)nc1-c1ccc(F)c(F)c1 [Compound A26, [2-Benzhydryl-4-(3,4-difluoro-phenyl)-thiazol-5-yl]-acetic acid] | < 500 nM | < 500 nM |
| O=C(O)Cc1sc(C(c2ccc(F)cc2)c2ccc(F)cc2)nc1-c1cccc(F)c1 [Compound A27, [2-[Bis-(4-fluoro-phenyl)-methyl]-4-(3-fluoro-phenyl)-thiazol-5-yl]-acetic acid] | < 500 nM | < 500 nM |
| O=C(O)Cc1sc(C(c2ccccc2)c2ccccn2)nc1-c1ccc(Cl)cc1 (stereo not drawn) [Compound A28, [4-(4-Chloro-phenyl)-2-(phenyl-pyridin-2-yl-methyl)-thiazol-5-yl]-acetic acid] | 500 to 5000 nM | < 500 nM |
| COc1ccc(C(c2ccccn2)c2nc(-c3ccc(Cl)cc3)c(CC(=O)O)s2)cc1 (stereo not drawn) [Compound A31, {4-(4-Chloro-phenyl)-2-[(4-methoxy-phenyl)-pyridin-2-yl-methyl]-thiazol-5-yl}-acetic acid] | < 500 nM | < 500 nM |
| O=C(O)Cc1sc(Cc2ccccc2-c2ccccc2)nc1-c1ccc(Cl)cc1 [Compound A34, [2-Biphenyl-2-ylmethyl-4-(4-chloro-phenyl)-thiazol-5-yl]-acetic acid] | < 500 nM | < 500 nM |
| O=C(O)Cc1sc(Cc2ccccc2-c2ccccc2)nc1-c1ccc(F)cc1 [Compound A36, [2-Biphenyl-2-ylmethyl-4-(4-fluoro-phenyl)-thiazol-5-yl]-acetic acid] | < 500 nM | < 500 nM |
| COc1cccc(-c2ccccc2Cc2nc(-c3ccc(F)cc3)c(CC(=O)O)s2)c1 [Compound A37, [4-(4-Fluoro-phenyl)-2-(3′-methoxy-biphenyl-2-ylmethyl)-thiazol-5-yl]-acetic acid] | < 500 nM | < 500 nM |
| N#Cc1ccc(-c2ccccc2Cc2nc(-c3ccc(F)cc3)c(CC(=O)O)s2)cc1 [Compound A38, [2-(4′-Cyano-biphenyl-2-ylmethyl)-4-(4-fluoro-phenyl)-thiazol-5-yl]-acetic acid] | < 500 nM | < 500 nM |
| COc1ccc(-c2ccccc2Cc2nc(-c3ccc(F)cc3)c(CC(=O)O)s2)cc1 [Compound A40, [4-(4-Fluoro-phenyl)-2-(4′-methoxy-biphenyl-2-ylmethyl)-thiazol-5-yl]-acetic acid] | < 500 nM | < 500 nM |
| O=C(O)Cc1sc(Cc2ccccc2-c2ccc3c(c2)OCO3)nc1-c1ccc(F)cc1 [Compound A42, [2-(2-Benzo[1,3]dioxol-5-yl-benzyl)-4-(4-fluoro-phenyl)-thiazol-5-yl]-acetic acid] | < 500 nM | < 500 nM |
| CC(=O)N1CCC(c2ccccc2)(c2nc(-c3ccc(Cl)cc3)c(CC(=O)O)s2)CC1 [Compound A45] | 500 to 5000 nM | < 500 nM |
| O=C(O)Cc1sc(C2(c3ccccc3)CCNCC2)nc1-c1ccc(Cl)cc1 [Compound A46, [4-(4-Chloro-phenyl)-2-(4-phenyl-piperidin-4-yl)-thiazol-5-yl]-acetic acid] | > 5000 nM | 500 to 5000 nM |
